This passage reports melting point results from a melting point compilation (Tetko et al.).

Broadly, the melting point is the temperature, or range, at which the solid turns liquid.

Each structure is given as a SMILES string.

`FC(F)(F)CNc1ccccn1` gave a melting point of 70 to 72 °C.
For `COc1cc(C(=O)O)ccc1OCc1ccccc1` the value was 174 to 176 °C; for `CS(=O)(=O)Cc1nc(=N)o[nH]1`, 158 to 160 °C; for `CCNC(=O)c1ccc(O)cc1`, 109 to 111 °C.
Under `Cc1[nH]ncc1CNc1ccc(O)cc1` stands 150 to 152 °C; under `Cc1ccccc1NC(=O)C1CCc2ccccc2N1` (stereo not drawn), 115 to 117 °C.
Under `CC(C)(C)NS(=O)(=O)Cc1cccc(C(=O)O)c1` stands 199 to 201 °C; under `COc1ccc(-c2cc(C(=O)O)[nH]n2)cc1`, 209 to 211 °C.
Molecule `O=C1NC(=O)C2CN(Cc3ccccc3)CC12` (stereo not drawn) yielded a melting point of 91 to 93 °C.
Under `Cc1noc(N)n1` stands 161 to 163 °C; under `NC(=O)COCc1ccccc1`, 92 to 94 °C.
For `O=C(O)c1ccc(OCc2ccccn2)cc1`, the melting point is 209 to 211 °C.
Regarding `O=C(O)c1ccc(F)c(COCC2CC2)c1`, the melting point is 69 to 71 °C.
For `O=C(O)C=Cc1ccc([N+](=O)[O-])o1` the value was 230 to 232 °C; for `Nc1ccc(OCc2ccncc2)cc1`, 129 to 131 °C.
The molecule `N#Cc1cnc2c(OC(F)F)cccc2c1Cl` came in with a melting point of 120 to 122 °C.
For `Cc1cccc(COc2ccccc2C(=O)O)c1` the value was 155 to 157 °C.
Under `O=Cc1ccc(OCC(=O)c2ccccc2)cc1` stands 115 to 119 °C; under `N#Cc1ccc(Oc2ccc(S(=O)(=O)Cl)cc2)cc1`, 110 to 112 °C; under `COc1ccc(S(=O)(=O)N2CCN(C)CC2)cc1N`, 107 to 109 °C.
For `O=C(O)C1SCCc2sccc21` (stereo not drawn) the value was 148 to 150 °C; for `O=C(O)CCn1cnc2sccc2c1=O`, 165 to 167 °C.
Consider `O=C(O)c1noc(-c2cccc(F)c2)n1`, for which the melting point lay in the range of 120 to 122 °C.
For `O=C(O)C(=O)c1ccc2c(c1)CCCC2` the value was 70 to 72 °C; for `O=C(O)C=Cc1ccc(Br)o1`, 125 to 135 °C.
For `COC(=O)c1cc(F)cc(Br)c1N` the value was 36 to 38 °C.
For `CCNC(=O)c1ccc(NC2CCOCC2)c(C)c1` the value was 195 to 197 °C; for `O=C(CCl)ONc1nc2ccccc2[nH]c1=O`, 187 to 189 °C; for `O=C(O)CCCOc1ccccc1Br`, 87 to 89 °C.
In turn, `CNc1ncc(I)cn1` displayed a melting point of 134 to 136 °C.
Consider `Nc1nc2c3c(ccc2s1)CCCC3`, for which the melting point is 122 to 124 °C.
Turning to `NC(=O)C1CCNc2ccccc21` (stereo not drawn), the melting point fell in the range of 119 to 121 °C.
For `O=C(O)CCNC(=O)NC1CCCCC1` the value was 163 to 165 °C; for `O=C(O)c1sccc1S(=O)(=O)NCc1cccs1`, 138 to 140 °C; for `Cc1c(S(=O)(=O)Cl)oc2ccc(F)cc12`, 81 to 83 °C.
For `N#CCc1nc2cc(Cl)ccc2s1` the value was 155 to 157 °C; for `O=C(O)C1(c2cccc(F)c2)CCC1`, 67 to 69 °C.
For `Cc1c(C)n(-c2ccc(Cl)cc2)c2ncnc(N)c12` the value was 249 to 251 °C; for `Clc1ncnc2c1CCCCC2`, 50 to 52 °C.
In turn, `COc1ccccc1N(C)S(=O)(=O)c1ccc(Cl)c(C(=O)O)c1` returned a melting point of 179 to 181 °C.
Under `O=C1CCc2[nH]c3ccccc3c2C1` stands 129 to 131 °C; under `Cc1cc(C(=O)CCl)c(C)n1-c1ccc(S(N)(=O)=O)cc1`, 241 to 243 °C; under `Nc1cc2c(cc1Cl)NC(=O)CO2`, 227 to 229 °C.
In turn, `COC(=O)CN1Cc2ccccc2C1=O` registered a melting point of 114 to 116 °C.
`N#Cc1ccc(NC(=O)C(=O)O)cc1Cl` gave a melting point of 203 to 205 °C.
Under `CC(=O)c1ccc(-n2cnnn2)cc1` stands 174 to 176 °C; under `Cc1nc(Cl)ccc1C(=O)O`, 149 to 151 °C.
`COc1ccc(S(N)(=O)=O)cc1N` displayed a melting point of 145 to 147 °C.
